# Test results: paper PMC11992225, “Antibacterial compounds against non-growing and intracellular bacteria” (npj Antimicrobials and Resistance, 2025)
# Read-outs that look alike come from different tables or passages of the source.
# Legend:
# [1] = tested on: non-growing S. aureus DSM2569; test: Dose-dependent killing analysis (CFU spot-plating) of stationary-phase S. aureus; type: cell-based, Staphylococcus aureus; details: for Log10(CFU/ml), Replicate #1 / Log10(CFU/ml), Replicate #2 / Log10(CFU/ml), Replicate #3 / Δlog10(CFU/ml): S. aureus; for Δlog10(CFU/ml): average killing vs before treatment (9,097)
# How it was run: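 Stationary-phase S. aureus DSM2569 was grown and treated for 24 h in 1:4 CA-MHB at pH 7.4. Treated samples were serially diluted 10-fold in PBS and spot-plated on LB agar, which was incubated overnight at 37 °C. Survivors were counted as CFU over three biological replicates.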
# [2] = tested on: non-growing UPEC CFT073; test: Dilution-regrowth assay (screen, hit validation, dose-response) on stationary-phase UPEC; type: cell-based, Escherichia coli; details: for OD600 at 6hr, Mean: after dilution into drug-free medium; for EC50: Escherichia coli
# How it was run: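 Regrowth (OD600 after 6 h, 37 °C) of diluted non-growing CFT073, following 24 h compound treatment of 24 h stationary cultures, defines activity relative to untreated control. Screen at 20 µM, validation at 20, 10, 5 µM (duplicates), dose–response in three biological replicates fitted by five-parameter logistic.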
# [3] = tested on: S. aureus DSM2569; test: MIC, standard microdilution assay, growing S. aureus; type: cell-based, Staphylococcus aureus; details: for MIC: Staphylococcus aureus
# How it was run: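 Standard microdilution protocol, triplicate wells. For S. flexneri the growth medium is TSB. The other three strains are grown in HEPES-buffered (40 mM, pH 7.4) CA-MHB, and UPEC is also run at pH 5.5 in LPM containing 30 mM MES.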
# [4] = tested on: non-growing UPEC CFT073; test: Dose-dependent killing analysis (CFU spot-plating) of stationary-phase UPEC; type: cell-based, Escherichia coli
# How it was run: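 Non-growing (stationary-phase) UPEC CFT073 treated with compounds in 96-well format at 200 μl, then 10-fold serially diluted in PBS and 10 μl spots plated on LB agar. Plates incubated overnight at 37 °C; colonies counted at lowest resolvable dilution to give CFU. Three biological replicates.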
# [5] = E. coli in 1:4 CA-MHB (pH 7.4), 0.25 μM
# [6] = E. coli in 1:4 CA-MHB (pH 7.4), 0.5 μM
# [7] = E. coli in 1:4 CA-MHB (pH 7.4), 1 μM
# [8] = E. coli in 1:4 CA-MHB (pH 7.4), 2.5 μM
# [9] = E. coli in 1:4 CA-MHB (pH 7.4), 5 μM
# [10] = E. coli in 1:4 CA-MHB (pH 7.4), 10 μM
# [11] = E. coli in LPM (pH 5.5), 0.25 μM
# [12] = E. coli in LPM (pH 5.5), 0.5 μM
# [13] = E. coli in LPM (pH 5.5), 2.5 μM
compound,measurement,setting,value
Cn1c(COP(=O)(NCCBr)NCCBr)cnc1[N+](=O)[O-] [Evofosfamide],"Log10(CFU/ml), Replicate #1",[1]; 0.1 μM,9.580 Log10(CFU/ml)
same,"Log10(CFU/ml), Replicate #2",[1]; 0.1 μM,8.996 Log10(CFU/ml)
same,"Log10(CFU/ml), Replicate #3",[1]; 0.1 μM,9.049 Log10(CFU/ml)
same,Δlog10(CFU/ml),[1]; 0.1 μM,-0.111 log10(CFU/ml)
same,"Log10(CFU/ml), Replicate #1",[1]; 0.5 μM,9.362 Log10(CFU/ml)
same,"Log10(CFU/ml), Replicate #2",[1]; 0.5 μM,9.017 Log10(CFU/ml)
same,"Log10(CFU/ml), Replicate #3",[1]; 0.5 μM,8.881 Log10(CFU/ml)
same,Δlog10(CFU/ml),[1]; 0.5 μM,0.011 log10(CFU/ml)
same,"Log10(CFU/ml), Replicate #1",[1]; 2.5 μM,8.863 Log10(CFU/ml)
same,"Log10(CFU/ml), Replicate #2",[1]; 2.5 μM,8.724 Log10(CFU/ml)
same,"Log10(CFU/ml), Replicate #3",[1]; 2.5 μM,8.663 Log10(CFU/ml)
same,Δlog10(CFU/ml),[1]; 2.5 μM,0.347 log10(CFU/ml)
same,"Log10(CFU/ml), Replicate #1",[1]; 10 μM,5.954 Log10(CFU/ml)
same,"Log10(CFU/ml), Replicate #2",[1]; 10 μM,5.845 Log10(CFU/ml)
same,"Log10(CFU/ml), Replicate #3",[1]; 10 μM,5.748 Log10(CFU/ml)
same,Δlog10(CFU/ml),[1]; 10 μM,3.248 log10(CFU/ml)
same,reduction of non-growing S. aureus,"[1]; at 10 µM, 24 h treatment",below the limit of detection
same,"OD600 at 6hr, Mean",[2]; [5],0.603
same,"OD600 at 6hr, Mean",[2]; [6],0.596
same,"OD600 at 6hr, Mean",[2]; [7],0.573
same,"OD600 at 6hr, Mean",[2]; [8],0.563
same,"OD600 at 6hr, Mean",[2]; [9],0.534
same,"OD600 at 6hr, Mean",[2]; [10],0.521
same,"OD600 at 6hr, Mean","[2]; E. coli in 1:4 CA-MHB (pH 7.4), 30 μM",0.480
same,"OD600 at 6hr, Mean",[2]; [11],0.553
same,"OD600 at 6hr, Mean",[2]; [12],0.543
same,"OD600 at 6hr, Mean","[2]; E. coli in LPM (pH 5.5), 1 μM",0.392
same,"OD600 at 6hr, Mean",[2]; [13],0.282
same,"OD600 at 6hr, Mean","[2]; E. coli in LPM (pH 5.5), 5 μM",0.193
same,"OD600 at 6hr, Mean","[2]; E. coli in LPM (pH 5.5), 10 μM",0.124
same,"OD600 at 6hr, Mean","[2]; E. coli in LPM (pH 5.5), 30 μM",0.114
same,EC50,[2]; pH 5.5,1540 nM
same,EC50,"[2]; pH 5.5, read-out: EC50 (regrowth inhibition curve, Fig. S4)",1540 nM
same,EC50,[2]; pH 7.4,11600 nM
same,activity against non-growing UPEC in LPM (pH 5.5) compared to 1:4 CA-MHB (pH 7.4),"[2]; regrowth delay and killing, Figs. 2 and 3",potentiated by the low pH
same,MIC (μM) CA-MHB +PAβN,"[3]; S. aureus, CA-MHB with 10 μg/ml PaβN",80 µM
same,MIC,"[3]; DSM2569, pH 7.4, read-out: MIC (μM) 1:4 CA-MHB",80 µM
same,MIC,"[3]; DSM2569, pH 7.4, read-out: MIC (μM) CA-MHB",160 µM
same,"Log10(CFU/ml), Replicate #1",[4]; [5],9.398 Log10(CFU/ml)
same,"Log10(CFU/ml), Replicate #2",[4]; [5],8.477 Log10(CFU/ml)
same,"Log10(CFU/ml), Replicate #3",[4]; [5],8.954 Log10(CFU/ml)
same,Δlog10(CFU/ml),"[4]; E. coli in 1:4 CA-MHB (pH 7.4), 0.25 μM, average killing vs before treatment (8.977)",0.034 log10(CFU/ml)
same,"Log10(CFU/ml), Replicate #1",[4]; [6],9.279 Log10(CFU/ml)
same,"Log10(CFU/ml), Replicate #2",[4]; [6],9.114 Log10(CFU/ml)
same,"Log10(CFU/ml), Replicate #3",[4]; [6],8.301 Log10(CFU/ml)
same,Δlog10(CFU/ml),"[4]; E. coli in 1:4 CA-MHB (pH 7.4), 0.5 μM, average killing vs before treatment (8.977)",0.079 log10(CFU/ml)
same,"Log10(CFU/ml), Replicate #1",[4]; [7],9.477 Log10(CFU/ml)
same,"Log10(CFU/ml), Replicate #2",[4]; [7],8.845 Log10(CFU/ml)
same,"Log10(CFU/ml), Replicate #3",[4]; [7],8.491 Log10(CFU/ml)
same,Δlog10(CFU/ml),"[4]; E. coli in 1:4 CA-MHB (pH 7.4), 1 μM, average killing vs before treatment (8.977)",0.039 log10(CFU/ml)
same,"Log10(CFU/ml), Replicate #1",[4]; [8],9.415 Log10(CFU/ml)
same,"Log10(CFU/ml), Replicate #2",[4]; [8],8.954 Log10(CFU/ml)
same,"Log10(CFU/ml), Replicate #3",[4]; [8],8.491 Log10(CFU/ml)
same,Δlog10(CFU/ml),"[4]; E. coli in 1:4 CA-MHB (pH 7.4), 2.5 μM, average killing vs before treatment (8.977)",0.024 log10(CFU/ml)
same,"Log10(CFU/ml), Replicate #1",[4]; [9],8.778 Log10(CFU/ml)
same,"Log10(CFU/ml), Replicate #2",[4]; [9],7.845 Log10(CFU/ml)
same,"Log10(CFU/ml), Replicate #3",[4]; [9],8.301 Log10(CFU/ml)
same,Δlog10(CFU/ml),"[4]; E. coli in 1:4 CA-MHB (pH 7.4), 5 μM, average killing vs before treatment (8.977)",0.669 log10(CFU/ml)
same,"Log10(CFU/ml), Replicate #1",[4]; [10],9.000 Log10(CFU/ml)
same,"Log10(CFU/ml), Replicate #2",[4]; [10],8.000 Log10(CFU/ml)
same,"Log10(CFU/ml), Replicate #3",[4]; [10],7.778 Log10(CFU/ml)
same,Δlog10(CFU/ml),"[4]; E. coli in 1:4 CA-MHB (pH 7.4), 10 μM, average killing vs before treatment (8.977)",0.718 log10(CFU/ml)
same,"Log10(CFU/ml), Replicate #1",[4]; [11],6.477 Log10(CFU/ml)
same,"Log10(CFU/ml), Replicate #2",[4]; [11],6.568 Log10(CFU/ml)
same,"Log10(CFU/ml), Replicate #3",[4]; [11],8.176 Log10(CFU/ml)
same,Δlog10(CFU/ml),"[4]; E. coli in LPM (pH 5.5), 0.25 μM, average killing vs before treatment (7.350)",0.277 log10(CFU/ml)
same,"Log10(CFU/ml), Replicate #1",[4]; [12],6.602 Log10(CFU/ml)
same,"Log10(CFU/ml), Replicate #2",[4]; [12],6.903 Log10(CFU/ml)
same,"Log10(CFU/ml), Replicate #3",[4]; [12],8.230 Log10(CFU/ml)
same,Δlog10(CFU/ml),"[4]; E. coli in LPM (pH 5.5), 0.5 μM, average killing vs before treatment (7.350)",0.105 log10(CFU/ml)
same,"Log10(CFU/ml), Replicate #1","[4]; E. coli in LPM (pH 5.5), 1 μM",6.279 Log10(CFU/ml)
same,"Log10(CFU/ml), Replicate #2","[4]; E. coli in LPM (pH 5.5), 1 μM",6.845 Log10(CFU/ml)
same,"Log10(CFU/ml), Replicate #3","[4]; E. coli in LPM (pH 5.5), 1 μM",8.000 Log10(CFU/ml)
same,Δlog10(CFU/ml),"[4]; E. coli in LPM (pH 5.5), 1 μM, average killing vs before treatment (7.350)",0.309 log10(CFU/ml)
same,"Log10(CFU/ml), Replicate #1",[4]; [13],6.301 Log10(CFU/ml)
same,"Log10(CFU/ml), Replicate #2",[4]; [13],6.079 Log10(CFU/ml)
same,"Log10(CFU/ml), Replicate #3",[4]; [13],7.954 Log10(CFU/ml)
same,Δlog10(CFU/ml),"[4]; E. coli in LPM (pH 5.5), 2.5 μM, average killing vs before treatment (7.350)",0.572 log10(CFU/ml)
same,"Log10(CFU/ml), Replicate #1","[4]; E. coli in LPM (pH 5.5), 5 μM",5.699 Log10(CFU/ml)
same,"Log10(CFU/ml), Replicate #2","[4]; E. coli in LPM (pH 5.5), 5 μM",5.447 Log10(CFU/ml)
same,"Log10(CFU/ml), Replicate #3","[4]; E. coli in LPM (pH 5.5), 5 μM",7.602 Log10(CFU/ml)
same,Δlog10(CFU/ml),"[4]; E. coli in LPM (pH 5.5), 5 μM, average killing vs before treatment (7.350)",1.101 log10(CFU/ml)
same,"Log10(CFU/ml), Replicate #1","[4]; E. coli in LPM (pH 5.5), 10 μM",5.176 Log10(CFU/ml)
same,"Log10(CFU/ml), Replicate #2","[4]; E. coli in LPM (pH 5.5), 10 μM",4.954 Log10(CFU/ml)
same,"Log10(CFU/ml), Replicate #3","[4]; E. coli in LPM (pH 5.5), 10 μM",7.146 Log10(CFU/ml)
same,Δlog10(CFU/ml),"[4]; E. coli in LPM (pH 5.5), 10 μM, average killing vs before treatment (7.350)",1.592 log10(CFU/ml)
